In US10046014B2, “Useful active agent for preventing and/or treating dandruff conditions of the scalp” (L'OREAL, priority 2011, dated 2018):

How the values were obtained:
Malassezia globosa = assay: Antifungal inhibition test on agar (Malassezia suspension, growth scored against control); type: cell-based; set-up: key to inhibition score (density of the culture at the surface of the agar vs growth control): 3: No growth; 2: Growth < in the control dish; 1: Growth < in the control dish; 0: Growth comparable to the control dish; conditions: positive reference 1% zinc pyrithione
Description: (§1) The test product is brought into contact with the Malassezia suspension. The mixture is deposited at the surface of agar medium. It is spread and the excess is recovered before incubation. It is incubated for at least 5 days at 30° C.
(§2) The products are placed in solution in liquid modified Leeming and Notman medium (LNm) and the tests are carried out in duplicate. The complete culture is at 7.5 g/l or 150 g/l (concentrated version) on a dry matter basis.
(§3) The complete culture was tested at 10% (for the concentration at 7.5 g/l) and at 1% (for the concentration at 150 g/l).
(§4) The positive reference is 1% zinc pyrithione.
(§5) The solutions of the products are twice as concentrated in order to take into account the dilution to ½ during the bringing into contact with the Malassezia suspension.
(§6) The Malassezia globosa and restricta strains were received on agar slopes and were subcultured and incubated at 30° C. until the tests.
(§7) The suspensions are prepared in 15 ml of a buffered solution (ref AEB611294, AES).
(§8) The density of the suspensions is taken at 550 nm.
(§9) The antifungal effect of the reference product is evaluated via the absence of growth of the Malassezia strain tested. This inhibition is evaluated relative to the growth control.
(§10) The inhibitions are scored from 3 to 0 via assessment of the density of the culture at the surface of the agar, in comparison with the growth control for the strain.

Malassezia restricta = assay: as above; type: cell-based; set-up: key to inhibition score (density of the culture at the surface of the agar vs growth control): 3: No growth; 2: Growth < in the control dish; 1: Growth < in the control dish; 0: Growth comparable to the control dish; conditions: positive reference 1% zinc pyrithione
Description: as §1, §2, §3, §4, §5, §6, §7, §8, §9, §10

## Zinc pyrithione
Malassezia globosa
  inhibition in words: Total inhibition
Malassezia globosa; at least 5 days at 30° C.
  inhibition score (density of the culture at the surface of the agar vs growth control): 3
Malassezia restricta
  inhibition in words: Total inhibition
Malassezia restricta; at least 5 days at 30° C.
  inhibition score (density of the culture at the surface of the agar vs growth control): 3
